Tests used:
Assay in all cases: Challenge testing against pathogenic fungi, growth rating in broth tubes
Assay type in all cases: cell-based
Parameters in all cases: key: 0: No visible growth; 1: Some growth in tube; 2: Moderate growth in tube; 3: Good growth in tube; 4: Extreme growth in tube
[1] = system: Microsporum canis (ATTC 9084)
Protocol: (§1) Both Microsporum canis and Trichophyton rubrum were grown on Sabouraud dextrose broth, while Malassezia fufur was grown in Sabouraud dextrose broth supplemented with 2% (v/v) of olive oil and 0.2% (v/v) of Tween™ 80; incubation was at 22°±2° C. under continuous agitation by stirring for 10 days. The organisms were grown to a density of between 1.0×10^3 to 1.0×10^4 cfu/g. The actual inoculation cell density of these challenges were determined by diluting in sterile buffer water and (spread-plate method) plating for enumeration.
(§2) Challenge organisms were used to inoculate tubes of 1,4-CHDM-D90 test concentrations prepared in Sabouraud dextrose broth (or Sabouraud dextrose broth supplemented with olive oil-Tween™ 80 with M. furfur). The inoculations were in the amount of 1.5 mL aliquots of each culture with static incubation at 22±2° C. Subcultures were made at 3-, 14- and 30-day increments. All challenges were conducted in triplicate. In the case of M. canis, the growth response was assessed by the visual presence/absence of growth in the tubes; in the case of T. rubrum, a respiratory (redox) dye (0.2% w/v aqueous INT solution: 2-[4-iodophenyl)-3-4-nitrophenyl]-5-phenyl tetrazolium chloride) was added to the tubes, turning red if the organism was viable; and, finally, in the case of M. furfur, the growth response was assessed based upon pellicle formation in the tubes at the meniscus. The test formulations and challenge test results, as well as 30-day MICs (Minimum Inhibitory Concentration), are in Tables 7-9 for the three organisms using the following growth rating system:
(§3) • 0: No visible growth • 1: Some growth in tube • 2: Moderate growth in tube • 3: Good growth in tube • 4: Extreme growth in tube

[2] = system: Malassezia furfur (ATCC 96809)
Protocol: as §1, §2, §3

[3] = system: Trichophyton rubrum (ATCC 10218)
Protocol: as §1, §2, §3

Structure (SMILES)	M. canis growth rating, 3 day ([1]; 0.5% weight/volume)	M. canis growth rating, 14 day ([1]; 0.5% weight/volume)	M. canis growth rating, 30 day ([1]; 0.5% weight/volume)	M. canis growth rating, 3 day ([1]; 1.25% weight/volume)	M. canis growth rating, 14 day ([1]; 1.25% weight/volume)	M. canis growth rating, 30 day ([1]; 1.25% weight/volume)	M. canis growth rating, 3 day ([1]; 2.5% weight/volume)	M. canis growth rating, 14 day ([1]; 2.5% weight/volume)	M. canis growth rating, 30 day ([1]; 2.5% weight/volume)	M. canis growth rating, 3 day ([1]; 5.0% weight/volume)	M. canis growth rating, 14 day ([1]; 5.0% weight/volume)	M. canis growth rating, 30 day ([1]; 5.0% weight/volume)	M. furfur growth rating, 3 day ([2]; 0.5% weight/volume)	M. furfur growth rating, 14 day ([2]; 0.5% weight/volume)	M. furfur growth rating, 30 day ([2]; 0.5% weight/volume)	M. furfur growth rating, 3 day ([2]; 1.25% weight/volume)	M. furfur growth rating, 14 day ([2]; 1.25% weight/volume)	M. furfur growth rating, 30 day ([2]; 1.25% weight/volume)	M. furfur growth rating, 3 day ([2]; 2.5% weight/volume)	M. furfur growth rating, 14 day ([2]; 2.5% weight/volume)	other results
OCC1CCCCC1CO (stereo not drawn) [1,2-CHDM, 1,2-cyclohexanedimethanol]	2	1	1	1	0	0	0	0	0	0	0	0	0	0	0	0	0	0	0	0	M. furfur growth rating, 30 day ([2]; 2.5% weight/volume): 0; M. furfur growth rating, 3 day ([2]; 5.0% weight/volume): 0; M. furfur growth rating, 14 day ([2]; 5.0% weight/volume): 0; M. furfur growth rating, 30 day ([2]; 5.0% weight/volume): 0; T. rubrum growth rating, 3 day ([3]; 0.5% weight/volume): 0; T. rubrum growth rating, 14 day ([3]; 0.5% weight/volume): 0; T. rubrum growth rating, 30 day ([3]; 0.5% weight/volume): 0; T. rubrum growth rating, 3 day ([3]; 1.25% weight/volume): 0; T. rubrum growth rating, 14 day ([3]; 1.25% weight/volume): 0; T. rubrum growth rating, 30 day ([3]; 1.25% weight/volume): 0; T. rubrum growth rating, 3 day ([3]; 2.5% weight/volume): 1; T. rubrum growth rating, 14 day ([3]; 2.5% weight/volume): 0; T. rubrum growth rating, 30 day ([3]; 2.5% weight/volume): 0; T. rubrum growth rating, 3 day ([3]; 5.0% weight/volume): 0; T. rubrum growth rating, 14 day ([3]; 5.0% weight/volume): 0; T. rubrum growth rating, 30 day ([3]; 5.0% weight/volume): 0
OCC1CCCC(CO)C1 (stereo not drawn) [1,3-CHDM, 1,3-cyclohexanedimethanol]	2	1	1	2	1	1	0	0	0	2	1	1	0	1	3	0	2	3	0	0	M. furfur growth rating, 30 day ([2]; 2.5% weight/volume): 0; M. furfur growth rating, 3 day ([2]; 5.0% weight/volume): 0; M. furfur growth rating, 14 day ([2]; 5.0% weight/volume): 2; M. furfur growth rating, 30 day ([2]; 5.0% weight/volume): 3; T. rubrum growth rating, 3 day ([3]; 0.5% weight/volume): 0; T. rubrum growth rating, 14 day ([3]; 0.5% weight/volume): 2; T. rubrum growth rating, 30 day ([3]; 0.5% weight/volume): 1; T. rubrum growth rating, 3 day ([3]; 1.25% weight/volume): 1; T. rubrum growth rating, 14 day ([3]; 1.25% weight/volume): 0; T. rubrum growth rating, 30 day ([3]; 1.25% weight/volume): 0; T. rubrum growth rating, 3 day ([3]; 2.5% weight/volume): 0; T. rubrum growth rating, 14 day ([3]; 2.5% weight/volume): 0; T. rubrum growth rating, 30 day ([3]; 2.5% weight/volume): 0; T. rubrum growth rating, 3 day ([3]; 5.0% weight/volume): 2; T. rubrum growth rating, 14 day ([3]; 5.0% weight/volume): 0; T. rubrum growth rating, 30 day ([3]; 5.0% weight/volume): 0

Source: patent US20100160454A1, “ANTIMICROBIAL AGENTS, COMPOSITIONS AND PRODUCTS CONTAINING THE SAME, AND METHODS OF USING THE COMPOSITIONS AND PRODUCTS” (Eastman Chemical Company, priority 2008, published 2010)
